# Reference: ChEMBL document CHEMBL6120959
# Calls of active or inactive are those of the source. The rule behind the calls is not given here.
# Columns and labels:
# [1] = target: Lysine-specific histone demethylase 1A (Homo sapiens) (UniProt O60341); type: cell-based; conditions: HCT-116, dose 0.063-1 µM, time 48.0 hrs
# [2] = target: Lysine-specific histone demethylase 1A (Homo sapiens) (UniProt O60341); test: Inhibition of LSD1 (unknown origin) demethylase-mediated FAD-dependent H2O2 production at 1 uM by fluorescence coupling enzyme assay
# [3] = target: T1, Histone deacetylase (Homo sapiens) (UniProt Q13547+O15379+Q9UBN7+Q92769+Q9UQL6+Q8WUI4+Q9BY41+Q96DB2+P56524+Q9UKV0+Q969S8); type: cell-based; conditions: HCT-116, dose 0.063-1 µM, time 48.0 hrs
# [4] = target: T1, Histone deacetylase (Homo sapiens); type: cell-based; conditions: HCT-116, dose 0.063-1 µM, time 48.0 hrs; remark: listed apart in the source
# [5] = target: Lysine-specific histone demethylase 1A (Homo sapiens) (UniProt O60341); type: tissue-based; conditions: Colorectal cancer organoid, dose 0.313-5 µM, time 10.0 day
# [6] = target: T1, Histone deacetylase (Homo sapiens); test: Inhibition of HDAC in patient-derived human Colorectal cancer organoid assessed as increase in acetyl-tubulin level at 0.313 to 5 uM treated for 10 days by Western blot analysis; type: tissue-based; conditions: dose 0.313-5 µM, time 10.0 day
# [7] = target: T1, Histone deacetylase (Homo sapiens); test: Inhibition of HDAC in patient-derived human Colorectal cancer organoid assessed as increase in acetyl-histone H3 level at 0.313 to 5 uM treated for 10 days by Western blot analysis; type: tissue-based; conditions: dose 0.313-5 µM, time 10.0 day
# [8] = target: Lysine-specific histone demethylase 1A (Homo sapiens) (UniProt O60341); type: tissue-based; conditions: Colorectal cancer organoid, dose > 2.5 µM, time 10.0 day
# [9] = target: Lysine-specific histone demethylase 1A (Homo sapiens) (UniProt O60341); test: Inhibition of LSD1 in patient-derived human Colorectal cancer organoid at >2.5 uM treated for 10 days by IHC analysis; type: tissue-based; conditions: time 10.0 day
SMILES,inhibition [1],inhibition [2],inhibition [3],inhibition [4],inhibition [5],inhibition [6],inhibition [7],inhibition [8],inhibition [9]
O=C(CCCCCCC(=O)Nc1ccccc1)NO,Active; Compound Might Have Indirect Lsd1 Inhibitory Effect,–,–,–,–,–,–,–,–
O=C(/C=C/c1cccc(S(=O)(=O)N[C@@H]2C[C@H]2c2ccccc2)c1)NO,Active,Active; More Effective Than Standard Lsd1 Inhibitor At All Concentrations Tested,Dose-dependent-effect,Dose-dependent-effect,Active,Active,Active,Active,Active
